Assay [1] concerns pulmonary artery endothelial cells. As to the kind of experiment: EndMT marker expression (Western blot, qRT-PCR) in pulmonary artery endothelial cells treated with TGF-β2 and IL-1β. The settings on record: PAECs treated simultaneously with TGF-β2, IL-1β and (R)-PFI-2. It counts as cell-based, human. On the procedure:
Pulmonary arterial ECs (PAECs) and human umbilical vein ECs (HUVECs) were cultured in EGM-2 (Lonza) to which MycoZap (Lonza) and 1% penicillin-streptomycin (Welgene) were added. Human Microvascular ECs (HMVECs) were cultured in EGM-2-MV (Lonza), and Lenti-λ-293T and MCF7 cells were cultured in Dulbecco's modified Eagle medium (DMEM) (HyClone) containing 10% fetal bovine serum (FBS, HyClone), 1% penicillin-streptomycin (Welgene), and MycoZap (Lonza). All cell lines were cultured at 37° C. in a 5% CO2 incubator and cultured at 90% density.
TGF-β2 was purchased from Peprotech and dissolved in pure water containing 0.1% bovine serum albumin (BSA). IL-1β was purchased from R&D System and dissolved in 1×PBS containing 0.1% BSA. […]
In order to isolate the total RNA, miRNeasy RNA isolation kit (QIAGEN) was used. The purified RNA was reverse transcribed using qPCRBIO cDNA Synthesis Kit (PCR-BIOSYSTEMS), and real-time quantitative PCR (qRT-PCR) was performed using qPCRBIO SyGreen Mix Hi-ROX (PCR-BIOSYSTEMS) according to the manufacturer's instructions. […]
All cells were lysed in radioimmunoprecipitation assay (RIPA) buffer (Biosesang) containing protease (GenDepot) and phosphatase (Sigma Aldrich) inhibitors for 20 minutes. […] A protein concentration was measured using Pierce BCA Protein Assay Kit (Thermo Scientific), and Laemmli SDS Sample Buffer was added to an equal amount of protein and boiled. […]

Assay [2] shares this test system. As to the kind of experiment: Phalloidin staining of cytoskeleton change in EndMT-induced pulmonary artery endothelial cells. It counts as cell-based, human. The settings on record: TGF-β2, IL-1β and (R)-PFI-2; FIG. 9C. On the procedure: PAECs and Lenti-X-293T were immobilized with 4% formaldehyde and washed with 1×PBS. Thereafter, the cells were permeabilized with 0.2% Triton X-100 and blocked with 1% BSA dissolved in 1×PBS for 1 hour at room temperature. The cells were reacted with the following primary antibodies at 4° C. overnight: anti-VE-cadherin (Cell Signaling, 2500S, 1:100), anti-Fibronectin (BD Pharmigen, 61007, 1:100), anti-TAGLN (Abcam, ab14106, 1:200), anti-α-SMA conjugated with Cy3 (Sigma Aldrich, C6198, 1:200), anti-NF-κB p65 (Cell signaling, 8242S, 1:400), anti-SET7/9 (LsBio, C337450, 1:100), and rhodamine phalloidin (Sigma Aldrich, 1:1,000). Secondary antibodies of donkey anti-goat Alexa Fluor 488 and donkey anti-goat Alexa Fluor 568 (Invitrogen, 1:400) were reacted at room temperature for 1 hour. In order to obtain immunostaining images, a confocal microscope equipped with a 60× objective lens (Zeiss LSM-700) was used.
In order to confirm the inhibitory effect of the drug on endothelial-mesenchymal transition, a model in which pulmonary artery endothelial cells were simultaneously treated with cyproheptadine along with TGF-β2 and IL-1β for 5 to 7 days was used. […]

Assay [3] has as its system PAECs. As to the kind of experiment: Dextran permeation assay. The note with it: TGF-β2, IL-1β and (R)-PFI-2; FIG. 9D. Format: cell-based, human. The procedure: PAECs were seeded at 2×10^5 cells per well in a 24-well plate equipped with a cell culture inlet (SPL, 0.4 μm). After a drug treatment, the insert was transferred to a well containing a serum-free medium (SFM), the medium in the insert was replaced with SFM containing FITC-dextran (Sigma Aldrich, FD40S, 1 mg/ml). After 10 minutes and 1 hour, a part of SFM was taken out from the plate well where dextran permeation occurred, and the fluorescence was measured. The fluorescence intensity was measured on a microplate reader (excitation, 485 nm; emission, 530 nm).

In assay [4] the test system is PAECs. As to the kind of experiment: Dil-Ac-LDL uptake assay. Format: cell-based, human. The settings on record: TGF-β2, IL-1β and (R)-PFI-2; FIG. 9E. The procedure:
PAECs were seeded at 2×10^5 cells per well in a 12-well plate. After a drug treatment, the cells were reacted with Dil-Ac-LDL (Invitrogen, 10 μg/ml) at 37° C. for 3 hours. After the reaction, the cells were washed four times with 1×PBS and then subjected to image analysis with a fluorescence microscope.

The test system of assay [5] is SuHx-induced pulmonary arterial hypertension rats. As to the kind of experiment: SuHx-induced pulmonary arterial hypertension animal model. Format: in vivo, rat. The settings on record: subcutaneously 10 mg/kg for 3 weeks. The procedure: 8-Week-old male Sprague Dawley rats (specific-pathogen-free grade form SaeronBio, Republic of Korea) were used for the PAH rat model.
Semaxanib (DC Chemicals, SU5416) dissolved in DMSO and then suspended in a buffer (0.5% sodium carboxymethylcellulose, 0.5% sodium chloride, 0.4% Tween-80, and 0.9% benzyl alcohol that were dissolved in deionized water) was injected subcutaneously into the rats at 20 mg/kg. The rats were exposed to 10% 02 hypoxic conditions for 3 weeks. After the rats were restored to normoxic conditions, Cyproheptadine (Cayman) or (R)-PFI-2 (DC Chemicals) was administered. Cyproheptadine was administered intraperitoneally every day at 5 mg/kg for 2 weeks, and (R)-PFI-2 was administered subcutaneously every 2 days at 10 mg/kg for 3 weeks. A right ventricular systolic pressure (RVSP) was measured, and the rats were sacrificed.
Proteins were separated by sodium dodecyl sulfate polyacrylamide gel electrophoresis (SDS-PAGE) and transferred to a polyvinylidene difluoride membrane (Millipore). After blocking the membrane with 3% BSA dissolved in 0.2% PBS with Tween® detergent (PBST), the proteins on the membrane were reacted with the primary antibodies listed in Table 2 overnight. For immunodetection, HRP-conjugated secondary antibodies (1:4,000) were conjugated with the primary antibodies at room temperature for 1 hour (average temperature of 22° C.), and then detected using an enhanced chemiluminescence detection system (Thermo Scientific). In order to separate cytoplasmic and nuclear proteins, EpiQuik Nuclear Extraction Kit (EpiGentek) was used according to the manufacturer's instructions. Protein extracts from animal lung tissue were homogenized in RIPA buffer for 3 minutes at a frequency of 25 Hz.
The harvested animal lung tissue was embedded in paraffin blocks and cut into […] sections. The paraffin sections were deparaffinized using Histoclear for 10 minutes. In order to hydrate the sections, ethanol dissolved in pure water was used according to a concentration gradient (100%, 90%, 70%, 50%, 30%, and 0%). The tissue slides were placed in Borg Decloaker RTU antigen retrieval solution (Biocare Medical) and the sections were heated using a pressure cooker to recover antigens. When the temperature of the recovery solution was lowered, the sections were washed three times with 1×PBS for 5 minutes each, and then blocked with a blocking buffer (1% BSA and 5% goat serum dissolved in 1×PBS) at room temperature for 30 minutes. The sections were reacted with the primary antibodies at 4° C. overnight. Anti-vWF conjugated with FITC (Abcam, ab8822, 1:50), anti-α-SMA conjugated with Cy3 (Sigma Aldrich, C6198, 1:100), anti-SM22a (Abcam, ab14106, 1:130), and anti-SET7/9 (LsBio, C337450, 1:50) were used. For fluorescent staining, the sections were reacted with the secondary antibodies such as donkey anti-goat Alexa Fluor 568 (Invitrogen, 1:150 to 1:400), Goat anti-Rabbit Alexa Fluor 647 (Invitrogen, 1:150), and donkey anti-goat Alexa Fluor 568 (Invitrogen, 1:400) at room temperature for 1 hour. For color staining, after the sections were reacted with the primary antibodies overnight, the sections were reacted with Goat anti-Mouse IgG Secondary Antibody, HRP (Pierce, 1:100) for 1 hour and subjected to a color reaction using DAB staining kit (Vector, SK-4800). Hematoxylin-eosin staining was performed using staining products available from Vector. Image analysis was performed using confocal microscopes equipped with a 40× objective available from Zeiss and Leica. The co-localization effect was verified through Mander's overlap coefficient (MOC). […]
In order to confirm the effect of (R)-PFI-2 in an animal model, (R)-PFI-2 was administered subcutaneously to SuHx-induced pulmonary arterial hypertension rats at a concentration of 10 mg/kg for 3 weeks. […]

Another assay deals with T1, SET7/9 (Homo sapiens, UniProt Q8WTS6).
T1 sequence (Q8WTS6 1-366): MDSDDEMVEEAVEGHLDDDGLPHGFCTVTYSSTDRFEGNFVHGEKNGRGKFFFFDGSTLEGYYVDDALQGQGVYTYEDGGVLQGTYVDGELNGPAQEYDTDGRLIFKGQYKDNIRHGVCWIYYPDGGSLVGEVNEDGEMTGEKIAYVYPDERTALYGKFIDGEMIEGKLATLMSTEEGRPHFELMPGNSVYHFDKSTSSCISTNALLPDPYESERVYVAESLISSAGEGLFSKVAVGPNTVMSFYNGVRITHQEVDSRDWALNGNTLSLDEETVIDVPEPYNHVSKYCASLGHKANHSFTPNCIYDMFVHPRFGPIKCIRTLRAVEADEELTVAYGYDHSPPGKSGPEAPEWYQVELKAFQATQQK
The note with it: acts by attaching to the substrate peptide binding groove of SET7/9; cited from earlier work.

Regarding `O=C([C@@H](Cc1cccc(C(F)(F)F)c1)NS(=O)(=O)c1cc(F)c2c(c1)CCNC2)N1CCCC1` [(R)-PFI-2], the “expression of endothelial cell marker CD31 and mesenchymal cell markers TNC, FN, Calponin, SM22α (Western blot)” value in assay [1] (FIG. 9A) is given as “restoration”. The “expression of PECAM1 and FN, CDH2, COL3A1 (qRT-PCR)” value in assay [1] (FIG. 9B) was “restoration”. For the same compound, the “change in cytoskeleton (phalloidin staining)” value in assay [2] was “reduced”. Further, the permeability entry in the assay with PAECs [3] is recorded as “restored”. In addition, in the assay on PAECs [4], the Dil-Ac-LDL uptake ability entry is reported as “restored”. Moreover, in assay [5] (SuHx rat lung tissue, FIG. 10D), the “SET7/9 expression in blood vessels” value is recorded as “decrease”; the “area where endothelial and mesenchymal cell markers were simultaneously stained (EndMT)” value was “decrease”. The “right ventricular systolic pressure (RVSP mmHg)” value in assay [5] (SuHx rats, FIG. 10A) is “decreased”. Besides, the “right ventricle/left ventricle+septum ratio (RV/LV+S %)” value in assay [5] (SuHx rats, FIG. 10B) is listed as “decreased”. In assay [5] (SuHx rats, FIG. 10C), the “right ventricle weight (RV mg)” value was “decreased”. For the same compound, the “muscularization of lung tissue blood vessels (immunohistochemical staining)” value in assay [5] (SuHx rats, FIG. 10D) is reported as “significantly reduced”. Also, in assay [5] (SuHx rats, FIG. 10F), the “expression of TGFβR1 in lung tissue” value was “decreased”; the “expression of mesenchymal cell markers such as Twist and pVIM in lung tissue” value is given as “decreased”; the “expression of phosphorylated SMAD2 protein in lung tissue” value is listed as “significantly decreased”. Moreover, the “number of blocked or enlarged blood vessels in lung tissue (H&E staining)” value in assay [5] (compared to SuHx group, FIG. 10E) is listed as “reduced”. Further, at SET7/9, the “mode of inhibition of SET7/9” value is “substrate competitive inhibitor”.

The record behind these values is patent US20250154590A1, “USE OF SET7/9 FOR DIAGNOSING AND TREATING ENDMT-RELATED DISEASE” (IBMSOL CO., LTD., priority 2021, published 2025).
